Reference: US11479587B2, “Cationic intrinsically disordered antimicrobial peptides” (priority 2016, dated 2022)
Where “and” joins values, the source holds several entries; their conditions need not be identical. Identical values can stand only once. Residues, ends and D or L forms follow the SMILES beside them.

Key:
Hemolysis assay = type: cell-based; conditions: for HC50 at 1 h: human, washed erythrocytes from EDTA-blood, pH 7.4
Outline: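 Washed EDTA-blood erythrocytes in 5% PBS, pH 7.4, were rotated 1 h at 37° C with peptides at 0, 3, 10, 30, 60 μm. Hemoglobin release read at 540 nm as % of 0.1% Triton X-100 hemolysis; CC50 from dose-response curve of triplicates.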

[1] = system: multidrug-resistant K. pneumoniae ATCC 700603; type: cell-based, Klebsiella pneumoniae
Protocol: The Gram-negative opportunistic pathogen K. pneumoniae is responsible for a spectrum of community-acquired and nosocomial infections and typically infects patients with indwelling medical devices, on which this microorganism is able to grow as a biofilm.
(§1) A sample of each culture was then diluted 40-fold in fresh broth and incubated at 37° C. for 1.5-3 h. […] All the plates were covered and incubated at 37° C. for 18 h.
(§2) Inhibition of bacterial growth was determined using resazurin as a marker for cell viability. Resazurin was added to each well, at 0.001% final concentration, and plates incubated at 37° C. for 2 h. Fluorescence intensity was measured, using F (top read), ex 560/10 nm, em 590/10 nm, using a Tecan M1000 Pro monochromator plate reader.

E. coli ATCC 25922 = type: cell-based, Escherichia coli; conditions: ATCC 25922, 2 h
Protocol: as §2

[2] = system: methicillin-resistant S. aureus strain (ATCC 43300); type: cell-based, Staphylococcus aureus; conditions: ATCC 43300, 18 h
Protocol: Furthermore, sensitivity of a methicillin-resistant S. aureus strain (ATCC 43300) was investigated for palmitoylated CIDAMPs in a microtiter plate screening model, with incubation in Mueller-Hinton medium at 37° C. for 18 h using resazurin as a marker for cell viability.
as §1, §2

C. albicans ATCC 928 = conditions: for MIC, C. albicans ATCC 90028: ATCC 928
P. aeruginosa ATCC 27853 = type: cell-based, Pseudomonas aeruginosa; conditions: ATCC 27853, 2 h
Protocol: as §2

[3] = Cytotoxicity (resazurin) assay
Outline: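 CC50 values were derived by fitting concentration-dependent percentage cytotoxicity to a dose–response function. The read-out was resazurin fluorescence (ex 560, em 590 nm; 100 μM, 3 h) after 20 h compound treatment of HEK293 cells at 37 °C in DMEM with 10% FBS.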

A. baumannii ATCC 19606 = type: cell-based, Acinetobacter baumannii; conditions: ATCC 19606, 2 h
Protocol: as §2

| Structure (SMILES) | HC50 (Hemolysis assay) | HC50 at 1 h (Hemolysis assay) | MIC, K. pneumoniae ATCC 700603 [1] | MIC, E. coli ATCC 25922 (E. coli ATCC 25922) | MIC, S. aureus ATCC 43300 [2] | MIC, C. albicans ATCC 90028 (C. albicans ATCC 928) | MIC, P. aeruginosa ATCC 27853 (P. aeruginosa ATCC 27853) | MIC, C. neoformans ATCC 208821 (C. neoformans) | CC50 [3] | MIC, A. baumannii ATCC 19606 (A. baumannii ATCC 19606) | MIC (C. albicans ATCC 928; ATCC 928, 18 h, pH 7.4) |
| --- | --- | --- | --- | --- | --- | --- | --- | --- | --- | --- | --- |
| CCCCCCCCCCCCCCCC(=O)NCC(=O)N[C@H](CCCNC(=N)N)C(=O)N[C@H](CCCNC(=N)N)C(=O)NCC(=O)NCC(=O)N[C@H](CCCNC(=N)N)C(=O)NCC(=O)NCC(=O)N[C@H](CCCNC(=N)N)C(=O)NCC(=O)N[C@H](CCCNC(=N)N)C(=O)NCC(=O)N[C@H](CCCNC(=N)N)C(=O)O [D-Pal-GR13] (HELM PEPTIDE1{[CCCCCCCCCCCCCCCC(=O)[*:2]].G.[dR].[dR].G.G.[dR].G.G.[dR].G.[dR].G.[dR]}$$$$V2.0) | 65 µg/mL | 24.5 µM | ≥32 µg/mL | ≥8 µg/mL | ≥2 µg/mL | ≥8 µg/mL | ≥16 µg/mL | ≥2 µg/mL | > 32 µg/mL and > 20.1 µM | ≥8 µg/mL |  |
| CCCCCCCCCCCCCCCC(=O)NCC(=O)N[C@@H](CCCNC(=N)N)C(=O)N[C@@H](CCCNC(=N)N)C(=O)NCC(=O)NCC(=O)N[C@@H](CCCNC(=N)N)C(=O)NCC(=O)NCC(=O)N[C@@H](CCCNC(=N)N)C(=O)NCC(=O)N[C@@H](CCCNC(=N)N)C(=O)O [Pal-GR11] (HELM PEPTIDE1{[CCCCCCCCCCCCCCCC(=O)[*:2]].G.R.R.G.G.R.G.G.R.G.R}$$$$V2.0) | 90 µg/mL |  |  | ≥8 µg/mL | ≥4 µg/mL | ≥4 µg/mL | ≥16 µg/mL | ≥4 µg/mL | > 32 µg/mL | ≥8 µg/mL |  |
| CCCCCCCCCCCCCCCC(=O)NCC(=O)N[C@@H](CCCNC(=N)N)C(=O)N[C@@H](CCCNC(=N)N)C(=O)NCC(=O)NCC(=O)N[C@@H](CCCNC(=N)N)C(=O)NCC(=O)NCC(=O)N[C@@H](CCCNC(=N)N)C(=O)NCC(=O)N[C@@H](CCCNC(=N)N)C(=O)NCC(=O)N[C@@H](CCCNC(=N)N)C(=O)O [Pal-GR13] (HELM PEPTIDE1{[CCCCCCCCCCCCCCCC(=O)[*:2]].G.R.R.G.G.R.G.G.R.G.R.G.R}$$$$V2.0) | 100 µg/mL | 62 µM | ≥16 µg/mL | ≥4 µg/mL | ≥0.25 µg/mL | ≥4 µg/mL | ≥8 µg/mL | ≥0.25 µg/mL | > 32 µg/mL and > 20.1 µM | ≥2 µg/mL | 1 to 32 µg/mL |
